Experimental data from patent US20040266623A1, “SYNERGISTIC QUINCLORAC HERBICIDAL COMPOSITIONS” (priority 2003, published 2004).

Assays:
Experiment in all cases: Greenhouse pot test, postemergent spray, visual control rating converted to percent control
Format in all cases: in vivo
[1] = test system: crabgrass
Method: (§1) Pots of crabgrass, dandelion, white clover, and plantain grown in greenhouse soiless growth media were sprayed with a greenhouse pot sprayer at 43.46 gallons of spray solution/acre and allowed to stand in the greenhouse. Visual observation of the effects made by the herbicidal compositions on the plants in the test pots was recorded for control of crabgrass, dandelion, clover and plantain at 24 hours after treatment (HAT), 48 hours after treatment (HAT), 72 hours after treatment (HAT), 7 days after treatment (DAT), 14 days after treatment (DAT) and 21 days after treatment (DAT). A control rating scale of 1 to 9 was used to record the visual observation of the effect of the herbicidal composition on the plants over the time period of the tests. 1=no control, and 9=death of plant, with intervening numbers representing successive degrees of observed effectiveness of the herbicidal composition over time. The 1-9 control rating scale was converted to percent control in the test data charts that follow.
(§2) The test protocol of S. R. Colby as set out in his article entitled “Calculating Synergistic and Antagonistic Responses of Herbicide Compositions,” received for publication Apr. 11, 1966, Contribution No. 3796 and Scientific Article No. 1271 of the Maryland Agricultural Experiment Station, Department pf Agronomy, University of Maryland was followed to evaluate the synergistic properties of the combination of quinclorac plus a herbicidal protox inhibitor, and a combination of quinclorac, plus a herbicidal protox inhibitor plus a herbicidal auxinic agent as compared with the individual herbicides, using Colby's formulas E=X+Y−XY/100 for a two herbicide combination, where E=the expected percent of inhibition of growth by herbicides, X=the percent inhibition of growth by herbicide A at p lb/A, and Y=the percent inhibition of growth by herbicide B at q lb/A, for a given combination of two herbicides. Colby's formula E=X+Y+Z−(XY+XZ+YZ)/100+XYZ/10,000, was used for the three-way herbicide combination evaluation, where E, X and Y are the same as in the two herbicide formula and Z=the percent inhibition of growth by the third herbicide.

[2] = test system: dandelion
Method: as §1, §2

[3] = test system: white clover
Method: as §1, §2

[4] = test system: plantain
Method: as §1, §2

[5] = Test 3, 7 DAT, scale 1=no control, 9=death of plant
[6] = Test 3, 14 DAT, scale 1=no control, 9=death of plant
[7] = Test 3, 21 DAT, scale 1=no control, 9=death of plant
[8] = Test 3, 24 HAT, scale 1=no control, 9=death of plant
[9] = Test 3, 72 HAT, scale 1=no control, 9=death of plant
[10] = Test 4, 24 HAT, scale 1=no control, 9=death of plant
[11] = Test 4, 72 HAT, scale 1=no control, 9=death of plant

Cc1cc(Cl)ccc1OCC(=O)OCCCCCC(C)C [MCPA IOE @ 1.10 lbs/A]
% Control Crabgrass ([1]; Test 3, 7 DAT): 11.1% | Control (1-9) Crabgrass [1, 5]: 1 | % Control Crabgrass ([1]; Test 3, 14 DAT): 22.2% | Control (1-9) Crabgrass [1, 6]: 2 | % Control Crabgrass ([1]; Test 3, 21 DAT): 44.4% | Control (1-9) Crabgrass [1, 7]: 4 | % Control Crabgrass ([1]; Test 3, 24 HAT): 11.1% | Control (1-9) Crabgrass [1, 8]: 1 | % Control Crabgrass ([1]; Test 3, 72 HAT): 11.1% | Control (1-9) Crabgrass [1, 9]: 1 | % Control Crabgrass ([1]; Test 4, 24 HAT): 11.1% | Control (1-9) Crabgrass [1, 10]: 1 | % Control Crabgrass ([1]; Test 4, 72 HAT): 11.1% | Control (1-9) Crabgrass [1, 11]: 1 | % Control Dandelion ([2]; Test 3, 7 DAT): 66.7% | Control (1-9) Dandelion [2, 5]: 6 | % Control Dandelion ([2]; Test 3, 14 DAT): 77.8% | Control (1-9) Dandelion [2, 6]: 7 | % Control Dandelion ([2]; Test 3, 21 DAT): 88.9% | Control (1-9) Dandelion [2, 7]: 8 | % Control Dandelion ([2]; Test 3, 24 HAT): 33.3% | Control (1-9) Dandelion [2, 8]: 3 | % Control Dandelion ([2]; Test 3, 72 HAT): 55.6% | Control (1-9) Dandelion [2, 9]: 5 | % Control Dandelion ([2]; Test 4, 24 HAT): 33.3% | Control (1-9) Dandelion [2, 10]: 3 | % Control Dandelion ([2]; Test 4, 72 HAT): 55.6% | Control (1-9) Dandelion [2, 11]: 5 | % Control Clover ([3]; Test 3, 7 DAT): 66.7% | Control (1-9) Clover [3, 5]: 6 | % Control Clover ([3]; Test 3, 14 DAT): 88.9% | Control (1-9) Clover [3, 6]: 8 | % Control Clover ([3]; Test 3, 21 DAT): 100.0% | Control (1-9) Clover [3, 7]: 9 | % Control Clover ([3]; Test 3, 24 HAT): 44.4% | Control (1-9) Clover [3, 8]: 4 | % Control Clover ([3]; Test 3, 72 HAT): 44.4% | Control (1-9) Clover [3, 9]: 4 | % Control Clover ([3]; Test 4, 24 HAT): 44.4% | Control (1-9) Clover [3, 10]: 4 | % Control Clover ([3]; Test 4, 72 HAT): 55.6% | Control (1-9) Clover [3, 11]: 5 | % Control Plantain ([4]; Test 3, 7 DAT): 66.7% | Control (1-9) Plantain [4, 5]: 6 | % Control Plantain ([4]; Test 3, 14 DAT): 77.8% | Control (1-9) Plantain [4, 6]: 7 | % Control Plantain ([4]; Test 3, 21 DAT): 77.8% | Control (1-9) Plantain [4, 7]: 7 | % Control Plantain ([4]; Test 3, 24 HAT): 44.4% | Control (1-9) Plantain [4, 8]: 4 | % Control Plantain ([4]; Test 3, 72 HAT): 44.4% | Control (1-9) Plantain [4, 9]: 4 | % Control Plantain ([4]; Test 4, 24 HAT): 22.2% | Control (1-9) Plantain [4, 10]: 2 | % Control Plantain ([4]; Test 4, 72 HAT): 44.4% | Control (1-9) Plantain [4, 11]: 4

Cc1nn(-c2cc(CC(Cl)C(=O)O)c(Cl)cc2F)c(=O)n1C(F)F (stereo not shown) [Carfentrazone]
% Control Crabgrass ([1]; Test 1, 7 DAT, 0.01 lbs/A): 77.8% | Control (1-9) Crabgrass ([1]; Test 1, 7 DAT, 0.01 lbs/A): 7 | % Control Crabgrass ([1]; Test 1, 7 DAT, 0.02 lbs/A): 77.8% | Control (1-9) Crabgrass ([1]; Test 1, 7 DAT, 0.02 lbs/A): 7 | % Control Crabgrass ([1]; Test 1, 14 DAT, 0.01 lbs/A): 33.3% | Control (1-9) Crabgrass ([1]; Test 1, 14 DAT, 0.01 lbs/A): 3 | % Control Crabgrass ([1]; Test 1, 14 DAT, 0.02 lbs/A): 33.3% | Control (1-9) Crabgrass ([1]; Test 1, 14 DAT, 0.02 lbs/A): 3 | % Control Crabgrass ([1]; Test 1, 24 HAT, 0.01 lbs/A): 22.2% | Control (1-9) Crabgrass ([1]; Test 1, 24 HAT, 0.01 lbs/A): 2 | % Control Crabgrass ([1]; Test 1, 24 HAT, 0.02 lbs/A): 33.3% | Control (1-9) Crabgrass ([1]; Test 1, 24 HAT, 0.02 lbs/A): 3 | % Control Crabgrass ([1]; Test 1, 48 HAT, 0.01 lbs/A): 33.3% | Control (1-9) Crabgrass ([1]; Test 1, 48 HAT, 0.01 lbs/A): 3 | % Control Crabgrass ([1]; Test 1, 48 HAT, 0.02 lbs/A): 55.6% | Control (1-9) Crabgrass ([1]; Test 1, 48 HAT, 0.02 lbs/A): 5 | % Control Crabgrass ([1]; Test 4, 7 DAT, 0.01 lbs/A): 55.6% | Control (1-9) Crabgrass ([1]; Test 4, 7 DAT, 0.01 lbs/A): 5 | % Control Crabgrass ([1]; Test 4, 7 DAT, 0.02 lbs/A): 55.6% | Control (1-9) Crabgrass ([1]; Test 4, 7 DAT, 0.02 lbs/A): 5 | % Control Crabgrass ([1]; Test 4, 14 DAT, 0.01 lbs/A): 55.6% | Control (1-9) Crabgrass ([1]; Test 4, 14 DAT, 0.01 lbs/A): 5 | % Control Crabgrass ([1]; Test 4, 14 DAT, 0.02 lbs/A): 55.6% | Control (1-9) Crabgrass ([1]; Test 4, 14 DAT, 0.02 lbs/A): 5 | % Control Dandelion ([2]; Test 1, 7 DAT, 0.01 lbs/A): 88.9% | Control (1-9) Dandelion ([2]; Test 1, 7 DAT, 0.01 lbs/A): 8 | % Control Dandelion ([2]; Test 1, 7 DAT, 0.02 lbs/A): 88.9% | Control (1-9) Dandelion ([2]; Test 1, 7 DAT, 0.02 lbs/A): 8 | % Control Dandelion ([2]; Test 1, 14 DAT, 0.01 lbs/A): 88.9% | Control (1-9) Dandelion ([2]; Test 1, 14 DAT, 0.01 lbs/A): 8 | % Control Dandelion ([2]; Test 1, 14 DAT, 0.02 lbs/A): 100.0% | Control (1-9) Dandelion ([2]; Test 1, 14 DAT, 0.02 lbs/A): 9 | % Control Dandelion ([2]; Test 1, 24 HAT, 0.01 lbs/A): 44.4% | Control (1-9) Dandelion ([2]; Test 1, 24 HAT, 0.01 lbs/A): 4 | % Control Dandelion ([2]; Test 1, 24 HAT, 0.02 lbs/A): 33.3% | Control (1-9) Dandelion ([2]; Test 1, 24 HAT, 0.02 lbs/A): 3 | % Control Dandelion ([2]; Test 1, 48 HAT, 0.01 lbs/A): 55.6% | Control (1-9) Dandelion ([2]; Test 1, 48 HAT, 0.01 lbs/A): 5 | % Control Dandelion ([2]; Test 1, 48 HAT, 0.02 lbs/A): 55.6% | Control (1-9) Dandelion ([2]; Test 1, 48 HAT, 0.02 lbs/A): 5 | % Control Dandelion ([2]; Test 4, 7 DAT, 0.01 lbs/A): 55.6% | Control (1-9) Dandelion ([2]; Test 4, 7 DAT, 0.01 lbs/A): 5 | % Control Dandelion ([2]; Test 4, 7 DAT, 0.02 lbs/A): 88.9% | Control (1-9) Dandelion ([2]; Test 4, 7 DAT, 0.02 lbs/A): 8 | % Control Dandelion ([2]; Test 4, 14 DAT, 0.01 lbs/A): 55.6% | Control (1-9) Dandelion ([2]; Test 4, 14 DAT, 0.01 lbs/A): 5 | % Control Dandelion ([2]; Test 4, 14 DAT, 0.02 lbs/A): 88.9% | Control (1-9) Dandelion ([2]; Test 4, 14 DAT, 0.02 lbs/A): 8 | % Control Clover ([3]; Test 1, 7 DAT, 0.01 lbs/A): 66.7% | Control (1-9) Clover ([3]; Test 1, 7 DAT, 0.01 lbs/A): 6 | % Control Clover ([3]; Test 1, 7 DAT, 0.02 lbs/A): 66.7% | Control (1-9) Clover ([3]; Test 1, 7 DAT, 0.02 lbs/A): 6 | % Control Clover ([3]; Test 1, 14 DAT, 0.01 lbs/A): 77.8% | Control (1-9) Clover ([3]; Test 1, 14 DAT, 0.01 lbs/A): 7 | % Control Clover ([3]; Test 1, 14 DAT, 0.02 lbs/A): 100.0% | Control (1-9) Clover ([3]; Test 1, 14 DAT, 0.02 lbs/A): 9 | % Control Clover ([3]; Test 1, 24 HAT, 0.01 lbs/A): 33.3% | Control (1-9) Clover ([3]; Test 1, 24 HAT, 0.01 lbs/A): 3 | % Control Clover ([3]; Test 1, 24 HAT, 0.02 lbs/A): 33.3% | Control (1-9) Clover ([3]; Test 1, 24 HAT, 0.02 lbs/A): 3 | % Control Clover ([3]; Test 1, 48 HAT, 0.01 lbs/A): 55.6% | Control (1-9) Clover ([3]; Test 1, 48 HAT, 0.01 lbs/A): 5 | % Control Clover ([3]; Test 1, 48 HAT, 0.02 lbs/A): 55.6% | Control (1-9) Clover ([3]; Test 1, 48 HAT, 0.02 lbs/A): 5 | % Control Clover ([3]; Test 4, 7 DAT, 0.01 lbs/A): 66.7% | Control (1-9) Clover ([3]; Test 4, 7 DAT, 0.01 lbs/A): 6 | % Control Clover ([3]; Test 4, 7 DAT, 0.02 lbs/A): 77.8% | Control (1-9) Clover ([3]; Test 4, 7 DAT, 0.02 lbs/A): 7 | % Control Clover ([3]; Test 4, 14 DAT, 0.01 lbs/A): 66.7% | Control (1-9) Clover ([3]; Test 4, 14 DAT, 0.01 lbs/A): 6 | % Control Clover ([3]; Test 4, 14 DAT, 0.02 lbs/A): 88.9% | Control (1-9) Clover ([3]; Test 4, 14 DAT, 0.02 lbs/A): 8 | % Control Plantain ([4]; Test 4, 7 DAT, 0.01 lbs/A): 100.0% | Control (1-9) Plantain ([4]; Test 4, 7 DAT, 0.01 lbs/A): 9 | % Control Plantain ([4]; Test 4, 7 DAT, 0.02 lbs/A): 88.9% | Control (1-9) Plantain ([4]; Test 4, 7 DAT, 0.02 lbs/A): 8 | % Control Plantain ([4]; Test 4, 14 DAT, 0.01 lbs/A): 100.0% | Control (1-9) Plantain ([4]; Test 4, 14 DAT, 0.01 lbs/A): 9 | % Control Plantain ([4]; Test 4, 14 DAT, 0.02 lbs/A): 88.9% | Control (1-9) Plantain ([4]; Test 4, 14 DAT, 0.02 lbs/A): 8
